Legend:
Experiment in all cases: relative viability (nuclei count vs DMSO), 5 days (fraction); higher = more cells survive
[1] = compound: C1/C(=C\C2=CC=CS2)/C(=O)/C(=C/C3=CC=CS3)/C1 + O=C(CCCCCCC(=O)Nc1ccccc1)NO [Vorinostat] (partner 1 µM)
Summary of the method: (§1)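 Lung cancer cell lines in 1536-well plates got either a single drug or a fixed anchor-drug dose together with five library-drug doses (not always all listed) in √10 steps, by pin tool, on the day after seeding. Nuclei were counted after 5 days, and relative viability is the treated-to-vehicle ratio of nuclei counts. Values are medians of duplicate plates.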

[2] = compound: C1/C(=C\C2=CC=CS2)/C(=O)/C(=C/C3=CC=CS3)/C1 + COc1cccc2cc(-c3nc([C@H]4CC[C@H](C(=O)O)CC4)n4ncnc(N)c34)[nH]c12 [OSI-027] (partner 0.5 µM)
Summary of the method: as §1

[3] = compound: C1/C(=C\C2=CC=CS2)/C(=O)/C(=C/C3=CC=CS3)/C1 + Nc1nc2[nH]cc(CCc3ccc(C(=O)N[C@@H](CCC(=O)O)C(=O)O)cc3)c2c(=O)[nH]1 [Pemetrexed] (partner 0.2 µM)
Summary of the method: as §1

[4] = compound: C1=CC(=CC=C1C2=CC(=C(S2)NC(=O)N)C(=O)N)F [TPCA-1] + CS(=O)(=O)N1CCN(Cc2cc3nc(-c4cccc5[nH]ncc45)nc(N4CCOCC4)c3s2)CC1 [Pictilisib] (partner 1 µM)
Summary of the method: as §1

Cell Line	relative viability ([1]; first compound 0.2 µM)	relative viability ([1]; first compound 0.6325 µM)	relative viability ([1]; first compound 2 µM)	relative viability ([1]; first compound 6.325 µM)	relative viability ([1]; first compound 20 µM)	relative viability ([2]; first compound 0.2 µM)	relative viability ([2]; first compound 0.6325 µM)	relative viability ([2]; first compound 2 µM)	relative viability ([2]; first compound 6.325 µM)	relative viability ([2]; first compound 20 µM)	relative viability ([3]; first compound 0.2 µM)	relative viability ([3]; first compound 0.6325 µM)	relative viability ([3]; first compound 2 µM)	relative viability ([3]; first compound 6.325 µM)	relative viability ([3]; first compound 20 µM)	relative viability ([4]; first compound 0.04 µM)	relative viability ([4]; first compound 0.1265 µM)	relative viability ([4]; first compound 0.4 µM)	relative viability ([4]; first compound 1.265 µM)	relative viability ([4]; first compound 4 µM)
HCC-78	0.51	0.401	0.441	0.425	0.385	0.372	0.404	0.431	0.37	0.326	0.923	0.817	0.862	0.921	0.862	0.242	0.194	0.21	0.203	0.103
HCC-366	0.41	0.381	0.373	0.324	0.425	1.13	1.01	1.11	0.744	0.836	0.168	0.169	0.156	0.116	0.172	0.182	0.13	0.177	0.117	0.124
HCC-827	0.999	0.897	0.908	0.764	0.822	0.813	0.767	0.809	0.737	0.695	0.262	0.226	0.243	0.248	0.284	1.21	0.868	1.04	0.81	0.744
HOP-62	0.733	0.681	0.646	0.51	0.68	0.836	0.73	0.851	0.771	0.872	0.307	0.316	0.248	0.243	0.342	0.964	0.57	0.734	0.123	0.186
IA-LM	0.959	1.09	1.01	0.885	0.852	–	–	–	–	–	–	–	–	–	–	0.319	0.339	0.417	0.376	0.404
LC-2-ad	0.696	0.745	0.711	0.647	0.64	0.817	0.941	0.984	0.708	0.785	0.272	0.298	0.268	0.25	0.287	0.644	0.376	0.488	0.322	0.0862
LCLC-97TM1	0.845	0.818	0.757	0.631	0.66	0.503	0.605	0.627	0.428	0.486	0.175	0.178	0.167	0.165	0.187	0.183	0.157	0.199	0.151	0.111
LCLC-103H	0.805	0.842	0.859	0.698	0.765	0.466	0.464	0.603	0.502	0.426	0.477	0.444	0.447	0.433	0.47	0.659	0.593	0.553	0.587	0.656
LK-2	0.255	0.337	0.432	0.324	0.32	0.223	0.226	0.266	0.216	0.2	0.273	–	0.354	0.282	0.276	0.721	0.349	0.615	0.662	0.442
LOU-NH91	1.03	0.934	1.01	0.782	0.973	0.733	0.722	0.769	0.648	0.714	0.331	0.401	0.316	0.37	0.375	0.527	0.438	0.563	0.507	0.469
LU99A	0.461	0.475	0.462	0.441	0.387	0.329	0.286	0.33	0.322	0.291	0.217	0.185	0.172	0.17	0.164	0.299	0.29	0.317	0.303	0.25
NCI-H522	0.967	0.911	0.893	1.01	0.909	0.793	0.715	0.841	0.518	0.727	1.04	0.916	1.17	0.988	0.957	–	–	–	–	–
NCI-H727	1.23	1.23	1.28	–	1.12	0.716	0.58	0.975	0.592	0.582	–	–	–	–	–	0.389	0.249	0.35	0.28	0.222
NCI-H1299	–	–	–	–	–	–	–	–	–	–	–	–	–	–	–	0.854	0.669	0.828	0.614	0.243
NCI-H1563	–	–	–	–	–	0.774	0.787	0.717	0.729	0.773	0.73	0.801	0.912	0.798	0.763	0.671	0.633	0.63	0.661	0.611
NCI-H1623	–	–	–	–	–	0.455	0.465	0.445	0.434	0.405	–	–	–	–	–	–	–	–	–	–
NCI-H1648	0.435	0.408	0.603	0.366	0.297	0.282	0.269	0.307	–	0.258	0.859	0.718	0.79	0.609	0.569	–	–	–	–	–
NCI-H1703	–	–	–	–	–	–	–	–	–	–	–	–	–	–	–	0.263	0.284	0.259	–	0.213
NCI-H1792	–	–	–	–	–	0.84	0.619	0.754	0.694	0.67	0.931	0.875	0.882	0.74	0.767	0.343	0.318	0.252	0.264	0.177
NCI-H2342	0.667	0.997	0.85	0.757	0.683	0.626	0.644	0.741	0.52	0.607	0.781	0.764	0.838	0.718	0.747	–	–	–	–	–
SW 900	0.525	0.485	0.569	0.59	0.558	0.63	0.492	0.612	0.531	0.796	0.481	0.525	0.49	0.399	0.482	–	–	–	–	–

— the supplement of paper PMC10307832
